“And” between values parts separate entries of the source, which are not always exact repeats. Equal values may be shown once. Ends that are not written are not given here.
Experiments:
human plasma proteins = test: Protein binding in human plasma (ultracentrifugation); assay type: in vitro ADME; settings: Human plasma (K2EDTA); 2 μM; 2.5 h at 37 °C
CYP2C19 = CYP2C19 (Homo sapiens, UniProt P33261); settings: microsomes
[1] = CYP450 time-dependent inhibition, all isoenzymes together; assay type: in vitro ADME, human; settings: all isoenzymes; +/− NADPH, with and without 30-min preincubation; read-out: Inhibition of CYP450 isoenzymes at 50 µM (maximum test concentration)
[2] = test system: CYP450 isoenzymes (1A2, 2B6, 2C8, 2C9, 2C19, 2D6 and 3A4); test: as above; assay type: in vitro ADME, human
[3] = Stability in simulated intestinal fluid (SIF); assay type: in vitro ADME
Protocol: When developing any potentially oral-route pharmaceutical agent, the denaturing and pepsin-rich environment of the stomach must be considered. The stability of HM-10/10 was tested in simulated gastric fluid (SGF) and simulated intestinal fluid (SIF) over 120 min. […] Samples were tested at 2 μM.
For the HM-10/10 stability assay in simulated gastric and intestinal fluids, propantheline was used to confirm retention time and carbutamide was used as the internal standard for calculations.

CYP1A2 = CYP1A2 induction (mRNA expression) in single-donor human hepatocytes; assay type: in vitro ADME
Protocol: RNA isolation and quantification: E-Z 96 Total RNA Kit (Omega Bio-tek, Catalog No. R1034-02) was used for RNA isolation and Quant-iT RNA assay kit (ThermoFisher, Catalog No. Q33140) was used for RNA quantification. The plates were removed from a −80 °C freezer and equilibrated to room temperature. RNA was extracted using the manufacturer’s recommended protocol. Eighty-one microliters of 100% ethanol were added into each well containing 150 µL of lysed sample to make a final ethanol concentration at 35%.
cDNA generation: For cDNA generation, a High-Capacity cDNA Reverse Transcription Kit (Applied Biosystems, Catalog No. 4319983) and QuantStudio 3 PCR system (Applied Biosystems) were used. In this step, 2X Reverse Transcription Master Mix was prepared using the contents of the kit. Then, 10 µL of total RNA was added to 10 µL of 2X Reverse Transcription Master Mix in a microplate and the plate was sealed. This plate was then run in a thermocycler to generate cDNA.
Real time PCR: SsoAdvanced Universal SYBR® Green Supermix (BIO-RAD, Catalog No. 172-5270) and the QuantStudio 3 Real-Time PCR system (Applied Biosystems) were used to perform real-time PCR on the generated cDNA. In this step, a PCR mix was prepared using PCR Supermix, SYBR® primers for the targeted genes, and nuclease-free water. Two microliters of ten-fold diluted cDNA samples (5 µL of cDNA into 45 μL of nuclease-free water) were added to 8 µL of PCR Mix in a microplate and sealed. This plate was then run through the Real-Time PCR system to generate the mRNA expression data.
• Human GAPDH • F: […] • R: […] • Human CYP1A2 • Unique Assay ID: qHsaCID0015160 • Chromosome Location: 15:75045562-75047256 • Human CYP2B6 • F: […] • R: […] • Human CYP3A4 • F: […] • R: […]

[4] = Metabolic stability in cryopreserved Sprague-Dawley rat hepatocytes; assay type: in vitro ADME; settings: Sprague-Dawley rat hepatocytes 0.5 million cells/mL; for CLint scaled: rat, hepatocytes, 2 μM
[5] = Metabolic stability in CD-1 mouse liver microsomes; assay type: in vitro ADME
[6] = Metabolic stability in cryopreserved beagle dog hepatocytes; assay type: in vitro ADME; settings: Beagle dog hepatocytes 0.5 million cells/mL; for CLint scaled: dog, hepatocytes, 2 μM
CYP3A4 = CYP3A4 induction (enzyme activity) in single-donor human hepatocytes; assay type: in vitro ADME; settings: for Fold Increase (Enzyme Activity) Mean: mean of three lots
in vitro = settings: beagle, dog, plasma, pH 7.4
Protocol: The supernatant was removed and incubated at 37 °C for at least 10 min before use. The pH of each matrix was checked and adjusted to pH 7.4 using 10% phosphoric acid or 1 N sodium hydroxide as necessary.
Test and control article stock solutions were spiked (1.5 µL) into matrix (0.749 mL) to a final assay concentration of 2 µM and mixed. […] These tubes were sealed and incubated at 37 °C with shaking.
The quenched samples were mixed briefly by vortexing and stored in a −20 °C freezer.
Sample plates were stored refrigerated until analysis.
The column was set to a temperature of 55 °C. […] The instrument was equipped with an electrospray ionization source (500 °C) operated in positive-ion mode.
Peak area ratios for IS-normalized test article and control article counts were used to calculate the percent remaining relative to the time zero (T0) value. As appropriate, results were plotted and further analyzed to calculate half-life (T1/2) values.
Mean peak ratios were used to calculate the percent remaining relative to the T0 value: % Remaining at Timex = (mean peak area ratio Tx/mean peak ratio T0) × 100.

[7] = Metabolic stability in Sprague-Dawley rat liver microsomes; assay type: in vitro ADME; settings: for CLint scaled: rat, microsomes, Sprague-Dawley rat liver microsomes 0.5 mg protein/mL, 2 μM
[8] = cryopreserved hepatocytes, read-out: % Remaining at 30 min
[9] = read-out: CLint (L/hr/kg) (converted)

Sequence of CYP2C19 (P33261 whole entry): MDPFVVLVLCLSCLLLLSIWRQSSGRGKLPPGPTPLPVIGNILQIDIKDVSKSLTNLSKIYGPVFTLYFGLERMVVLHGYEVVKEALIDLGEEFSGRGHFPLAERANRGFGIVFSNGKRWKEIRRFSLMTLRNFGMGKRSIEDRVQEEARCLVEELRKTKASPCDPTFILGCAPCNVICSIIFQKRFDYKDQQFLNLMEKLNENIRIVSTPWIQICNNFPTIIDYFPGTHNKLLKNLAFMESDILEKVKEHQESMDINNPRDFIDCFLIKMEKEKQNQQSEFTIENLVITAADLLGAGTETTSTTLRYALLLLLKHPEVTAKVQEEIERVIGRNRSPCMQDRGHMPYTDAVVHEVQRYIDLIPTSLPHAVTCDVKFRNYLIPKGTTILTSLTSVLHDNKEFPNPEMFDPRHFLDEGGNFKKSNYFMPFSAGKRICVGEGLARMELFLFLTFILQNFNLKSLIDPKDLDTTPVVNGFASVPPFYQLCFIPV

LRKLRKRLLRLVGRQLEEFL [HM-10/10, LRKLRKRLLRLVGRQLEEFL]
% Protein Bound Mean ± SD (human plasma proteins): 79.7% and 79.7 ± 5.5% | % Protein Free Mean ± SD (human plasma proteins): 20.3 ± 5.5% | % Inhibition at 50 µM No PI + NADPH (CYP2C19): −26.4% | % Inhibition at 50 µM No PI − NADPH (CYP2C19): −9.4% | % Inhibition at 50 µM PI + NADPH (CYP2C19): −6.0% | % Inhibition at 50 µM PI − NADPH (CYP2C19): 19.9% | inhibition at 50 µM [1]: -26.4 to 42.2% | Inhibition of CYP450 isoenzymes at 50 µM (maximum test concentration) ([2]; all isoenzymes, +/− NADPH, with and without 30-min preincubation): No inhibition to minimal inhibition | Inhibition of CYP isozymes at 50 µM with pre-incubation in the presence of 1 mM NADPH ([2]; all isozymes, pooled human liver microsomes 0.1 mg/mL): less than 30% | Time-dependent inhibition (TDI) of CYP450 isoenzymes ([2]; up to 50 µM, all isoenzymes): no TDI | Compound detected after 20 min under SIF conditions ([3]; SIF, 2 μM, 20 min): no HM-10/10 could be detected | half-life at 2 µM ([3]; simulated intestinal fluid (SIF), SIF pH 5.5): 2.72 min | Fold Increase (mRNA Expression) Lot HH1086 (CYP1A2; 2 µM): 1.69 fold | Fold Increase (mRNA Expression) Lot HH1142 (CYP1A2; 2 µM): 2.24 fold | Fold Increase (mRNA Expression) Lot HH1144 (CYP1A2; 2 µM): 1.81 fold | Fold Increase (mRNA Expression) Mean of 3 Lots (CYP1A2; 2 µM): 1.91 fold | Comments (mRNA induction) (CYP1A2; 10 µM): Induction Observed | Fold Increase (mRNA Expression) Lot HH1086 (CYP1A2; 10 µM): 2.75 fold | Fold Increase (mRNA Expression) Lot HH1142 (CYP1A2; 10 µM): 3.24 fold | Fold Increase (mRNA Expression) Lot HH1144 (CYP1A2; 10 µM): 1.75 fold | Fold Increase (mRNA Expression) Mean of 3 Lots (CYP1A2; 10 µM): 2.58 fold | Comments (mRNA induction) (CYP1A2; 25 µM): Induction Observed | Fold Increase (mRNA Expression) Lot HH1086 (CYP1A2; 25 µM): 2.74 fold | Fold Increase (mRNA Expression) Lot HH1142 (CYP1A2; 25 µM): 3.01 fold | Fold Increase (mRNA Expression) Lot HH1144 (CYP1A2; 25 µM): 1.13 fold | Fold Increase (mRNA Expression) Mean of 3 Lots (CYP1A2; 25 µM): 2.29 fold | half-life at 2 µM ([4]; cryopreserved hepatocytes): 5.81 min | remaining at 0.5 h, 2 µM [4, 8]: 1% | CLint scaled [4, 9]: 75.4 L/h/kg | CLint scaled ([4]; read-out: CLint (mL/min/kg)): 75.6 L/h/kg | CLint scaled ([5]; CD-1 mouse liver microsomes 0.5 mg protein/mL, 2 μM): 170 mL/min/kg | half-life at 2 µM ([5]; pooled liver microsomes, pH 7.4, CD-1 mouse liver microsomes 0.5 mg protein/mL): 32 min | remaining at 2 h, 2 µM ([5]; pooled liver microsomes, pH 7.4, CD-1 mouse liver microsomes 0.5 mg protein/mL, read-out: % Remaining at 120 min): 0.8% | half-life at 2 µM ([6]; cryopreserved hepatocytes): 10.7 min | remaining at 0.5 h, 2 µM [6, 8]: 16% | CLint scaled [6, 9]: 42 L/h/kg | CLint scaled ([6]; read-out: CLint (mL/min/kg)): 41.9 L/h/kg | Fold Increase (Enzyme Activity) Lot HH1086 (CYP3A4; 2 µM): 2.06 fold | Fold Increase (Enzyme Activity) Lot HH1142 (CYP3A4; 2 µM): 1.59 fold | Fold Increase (Enzyme Activity) Lot HH1144 (CYP3A4; 2 µM): 1.35 fold | Fold Increase (Enzyme Activity) Mean (CYP3A4; 2 µM): 1.67 fold | Fold Increase (Enzyme Activity) Lot HH1086 (CYP3A4; 10 µM): 2.20 fold | Fold Increase (Enzyme Activity) Lot HH1142 (CYP3A4; 10 µM): 2.12 fold | Fold Increase (Enzyme Activity) Lot HH1144 (CYP3A4; 10 µM): 1.83 fold | Fold Increase (Enzyme Activity) Mean (CYP3A4; 10 µM): 2.05 fold | Fold Increase (Enzyme Activity) Lot HH1086 (CYP3A4; 25 µM): 2.07 fold | Fold Increase (Enzyme Activity) Lot HH1142 (CYP3A4; 25 µM): 2.19 fold | Fold Increase (Enzyme Activity) Lot HH1144 (CYP3A4; 25 µM): 2.15 fold | Fold Increase (Enzyme Activity) Mean (CYP3A4; 25 µM): 2.14 fold | half-life at 2 µM (in vitro): 54.6 min | remaining at 2 h, 2 µM (in vitro): 24.8% | half-life at 2 µM ([7]; pooled liver microsomes, pH 7.4, Sprague-Dawley rat liver microsomes 0.5 mg protein/mL): 27.7 min | remaining at 2 h, 2 µM ([7]; pooled liver microsomes, pH 7.4, Sprague-Dawley rat liver microsomes 0.5 mg protein/mL, read-out: % Remaining at 120 min): 3.7% | CLint scaled [7, 9]: 6.09 L/h/kg | CLint scaled ([7]; read-out: CLint (mL/min/kg)): 6.06 L/h/kg
